Reference: ChEMBL document CHEMBL4808193, “[11]-Chaetoglobosins from Pseudeurotium bakeri Induce G2/M Cell Cycle Arrest and Apoptosis in Human Cancer Cells” (J Nat Prod, 2021)
pIC50: −log10 of the molar value.

Key:
A-427 [1] = assay: Induction of apoptosis in human A-427 cells assessed as early apoptotic cells at 6 uM measured after 24 hrs by Annexin V-FITC/propidium iodide staining based flow cytometric analysis (reference value: 4.50%); type: functional
MCF7 [2] = assay: Cell cycle arrest in human MCF7 cells assessed as accumulation at S phase at 5 uM measured after 24 hrs by PI staining based flow cytometry (reference value: 22.83%); type: functional
MCF7 [3] = assay: Induction of apoptosis in human MCF7 cells assessed as early apoptotic cells at 10 uM measured after 24 hrs by Annexin V-FITC/propidium iodide staining based flow cytometric analysis (reference value: 2.97%); type: functional
A-427 [4] = assay: Cell cycle arrest in human A-427 cells assessed as accumulation at S phase at 4 uM measured after 24 hrs by PI staining based flow cytometry (reference value: 37.30%); type: functional
MCF7 [5] = assay: Cell cycle arrest in human MCF7 cells assessed as accumulation at G2/M phase at 10 uM measured after 24 hrs by PI staining based flow cytometry (reference value: 14.79%); type: functional
HeLa = assay: Cytotoxicity against human HeLa cells assessed as reduction in cell viability by MTT assay; type: functional, cell-based
A-427 [6] = assay: Cell cycle arrest in human A-427 cells assessed as accumulation at G2/M phase at 2 uM measured after 24 hrs by PI staining based flow cytometry (reference value: 17.34%); type: functional
A-427 [7] = assay: Cell cycle arrest in human A-427 cells assessed as accumulation at G0/G1 phase at 4 uM measured after 24 hrs by PI staining based flow cytometry (reference value: 45.36%); type: functional
HT-29 = assay: Cytotoxicity against human HT-29 cells assessed as reduction in cell viability by MTT assay; type: functional, cell-based
HepG2 = assay: Cytotoxicity against human HepG2 cells assessed as reduction in cell viability by MTT assay; type: functional, cell-based
A-427 [8] = assay: Cell cycle arrest in human A-427 cells assessed as accumulation at S phase at 6 uM measured after 24 hrs by PI staining based flow cytometry (reference value: 37.30%); type: functional
A-427 [9] = assay: Induction of apoptosis in human A-427 cells assessed as early apoptotic cells at 2 uM measured after 24 hrs by Annexin V-FITC/propidium iodide staining based flow cytometric analysis (reference value: 4.50%); type: functional
MCF7 [10] = assay: Induction of apoptosis in human MCF7 cells assessed as late apoptotic cells at 15 uM measured after 24 hrs by Annexin V-FITC/propidium iodide staining based flow cytometric analysis (reference value: 0.76%); type: functional
L02 = assay: Cytotoxicity against human L02 cells assessed as reduction in cell viability by MTT assay; type: cell-based
MCF7 [11] = assay: Cell cycle arrest in human MCF7 cells assessed as accumulation at G0/G1 phase at 10 uM measured after 24 hrs by PI staining based flow cytometry (reference value: 62.38%); type: functional
MCF7 [12] = assay: Induction of apoptosis in human MCF7 cells assessed as late apoptotic cells at 10 uM measured after 24 hrs by Annexin V-FITC/propidium iodide staining based flow cytometric analysis (reference value: 0.76%); type: functional
A-427 [13] = assay: Cytotoxicity against human A-427 cells assessed as reduction in cell viability by MTT assay; type: functional, cell-based
MCF7 [14] = assay: Cell cycle arrest in human MCF7 cells assessed as accumulation at S phase at 10 uM measured after 24 hrs by PI staining based flow cytometry (reference value: 22.83%; type: functional
MCF7 [15] = assay: Induction of apoptosis in human MCF7 cells assessed as late apoptotic cells at 5 uM measured after 24 hrs by Annexin V-FITC/propidium iodide staining based flow cytometric analysis (reference value: 0.76%); type: functional
A-427 [16] = assay: Induction of apoptosis in human A-427 cells assessed as late apoptotic cells at 4 uM measured after 24 hrs by Annexin V-FITC/propidium iodide staining based flow cytometric analysis (reference value: 1.70%); type: functional
MCF7 [17] = assay: Induction of apoptosis in human MCF7 cells assessed as early apoptotic cells at 5 uM measured after 24 hrs by Annexin V-FITC/propidium iodide staining based flow cytometric analysis (reference value: 2.97%); type: functional
A-427 [18] = assay: Cell cycle arrest in human A-427 cells assessed as accumulation at G0/G1 phase at 6 uM measured after 24 hrs by PI staining based flow cytometry (reference value: 45.36%); type: functional
MCF7 [19] = assay: Cell cycle arrest in human MCF7 cells assessed as accumulation at G2/M phase at 5 uM measured after 24 hrs by PI staining based flow cytometry (reference value: 14.79%); type: functional
A-427 [20] = assay: Cell cycle arrest in human A-427 cells assessed as accumulation at G2/M phase at 4 uM measured after 24 hrs by PI staining based flow cytometry (reference value: 17.34%); type: functional
MCF7 [21] = assay: Cell cycle arrest in human MCF7 cells assessed as accumulation at G0/G1 phase at 5 uM measured after 24 hrs by PI staining based flow cytometry (reference value: 62.38%); type: functional
A-427 [22] = assay: Induction of apoptosis in human A-427 cells assessed as late apoptotic cells at 2 uM measured after 24 hrs by Annexin V-FITC/propidium iodide staining based flow cytometric analysis (reference value: 1.70%); type: functional
MCF7 [23] = assay: Cytotoxicity against human MCF7 cells assessed as reduction in cell viability by MTT assay; type: functional, cell-based
A-427 [24] = assay: Cell cycle arrest in human A-427 cells assessed as accumulation at G0/G1 phase at 2 uM measured after 24 hrs by PI staining based flow cytometry (reference value: 45.36%); type: functional
A-427 [25] = assay: Cell cycle arrest in human A-427 cells assessed as accumulation at S phase at 2 uM measured after 24 hrs by PI staining based flow cytometry (reference value: 37.30%); type: functional
MCF7 [26] = assay: Cell cycle arrest in human MCF7 cells assessed as accumulation at S phase at 15 uM measured after 24 hrs by PI staining based flow cytometry (reference value: 22.83%); type: functional
HCT-116 = assay: Cytotoxicity against human HCT-116 cells assessed as reduction in cell viability by MTT assay; type: functional, cell-based
A-427 [27] = assay: Cell cycle arrest in human A-427 cells assessed as accumulation at G2/M phase at 6 uM measured after 24 hrs by PI staining based flow cytometry (reference value: 17.34%); type: functional
MCF7 [28] = assay: Cell cycle arrest in human MCF7 cells assessed as accumulation at G0/G1 phase at 15 uM measured after 24 hrs by PI staining based flow cytometry (reference value: 62.38%); type: functional
A-427 [29] = assay: Induction of apoptosis in human A-427 cells assessed as early apoptotic cells at 4 uM measured after 24 hrs by Annexin V-FITC/propidium iodide staining based flow cytometric analysis (reference value: 4.50%); type: functional
A549 = assay: Cytotoxicity against human A549 cells assessed as reduction in cell viability by MTT assay; type: functional, cell-based
A-427 [30] = assay: Induction of apoptosis in human A-427 cells assessed as late apoptotic cells at 6 uM measured after 24 hrs by Annexin V-FITC/propidium iodide staining based flow cytometric analysis (reference value: 1.70%); type: functional
MCF7 [31] = assay: Cell cycle arrest in human MCF7 cells assessed as accumulation at G2/M phase at 15 uM measured after 24 hrs by PI staining based flow cytometry (reference value: 14.79%); type: functional
MCF7 [32] = assay: Induction of apoptosis in human MCF7 cells assessed as early apoptotic cells at 15 uM measured after 24 hrs by Annexin V-FITC/propidium iodide staining based flow cytometric analysis (reference value: 2.97%); type: functional

CC1=C[C@@H]2/C=C/C[C@H](C)CC(=O)/C=C/C(=O)[C@]23C(=O)N[C@@H](Cc2c[nH]c4ccccc24)[C@@H]3[C@@H]1C
Activity (A-427 [1]): 24.44%
Activity (MCF7 [2]): 8.32%
Activity (MCF7 [3]): 19.17%
Activity (A-427 [4]): 16.28%
Activity (MCF7 [5]): 51.9%
pIC50 (HeLa): 5.07
Activity (A-427 [6]): 36.13%
Activity (A-427 [7]): 36.51%
pIC50 (HT-29): 5.05
pIC50 (HepG2): 5.04
Activity (A-427 [8]): 16.51%
Activity (A-427 [9]): 8.26%
Activity (MCF7 [10]): 13.22%
pIC50 (L02): 4.44
Activity (MCF7 [11]): 40.98%
Activity (MCF7 [12]): 6.99%
pIC50 (A-427 [13]): 5.32
Activity (MCF7 [14]): 7.12%
Activity (MCF7 [15]): 5.79%
Activity (A-427 [16]): 25.77%
Activity (MCF7 [17]): 11.22%
Activity (A-427 [18]): 33.91%
Activity (MCF7 [19]): 42.67%
Activity (A-427 [20]): 47.21%
Activity (MCF7 [21]): 49.01%
Activity (A-427 [22]): 14.29%
pIC50 (MCF7 [23]): 5.19
Activity (A-427 [24]): 43.99%
Activity (A-427 [25]): 19.88%
Activity (MCF7 [26]): 8.11%
pIC50 (HCT-116): 4.91
Activity (A-427 [27]): 49.58%
Activity (MCF7 [28]): 36.2%
Activity (A-427 [29]): 19.74%
pIC50 (A549): 5.02
Activity (A-427 [30]): 29.64%
Activity (MCF7 [31]): 55.69%
Activity (MCF7 [32]): 32.79%
